# Assay: Cytotoxicity by survived cell number in 293 cells expressing ∆K280 TauRD‐DsRed
# Assay type: cell-based
# Conditions: human; for viability at 3 days, 1 µM: % of cells without treatment; for IC50 at 3 days: 293 cells expressing ∆K280 TauRD‐DsRed for 3 days
# Source text: In ∆K280 TauRD‐DsRed 293 cells, a proaggregant (ΔK280) Tau repeat domain (TauRD) containing residues 244–372 of the full‐length 4R2N Tau441 was fused in‐frame with DsRed fluorophore. Compared to the wild‐type TauRD, the poorly folded ΔK280 TauRD formed aggregates, which adversely affected the folding of fused DsRed and thus decreased DsRed fluorescence, as also evidenced by increase in thioflavin S fluorescence emission (Chang et al., 2017). Thioflavin S is a reporter dye for studies of Tau toxicity and pharmacologic prevention in cell model of tauopathy (Pickhardt et al., 2017). It binds to amyloid fibrils but not monomers and gives a distinct increase in fluorescence emission. Inhibition of Tau aggregation may improve DsRed misfolding, leading to increased fluorescence in ΔK280 TauRD‐DsRed‐expressing cells. Utilizing the established Tet‐on ΔK280 TauRD‐DsRed 293 cells (Chang et al., 2016), licochalcone A and LM compounds were tested for effects of reducing Tau misfolding and anti‐oxidation (Figure S2a). Congo red was included for comparison. […] In the following experiments, DsRed fluorescence was measured in wells containing at least 80% viable cells. […] Due to the features of their effectiveness and less cytotoxicity, licochalcone A (1 μM) and LM‐031 (1 μM) were chosen as the candidate compounds for the following experiments. […] Representative DsRed and thioflavin S fluorescent images of ∆K280 TauRD‐DsRed‐expressing cells untreated or treated with congo red (10 µM), licochalcone A (1 µM), or LM‐031 (1 µM) are shown in Figure S2d.
# DsRed fluorescence of proaggregant ∆K280 TauRD-DsRed 293 cells was evaluated to reflect Tau aggregation. On day 1, cells were seeded on a 96-well plate in a density of 0.8 × 10^4 cells/well. […] On the fifth day, the cells were stained with Hoechst 33342 (0.1 µg/ml; Sigma-Aldrich) for 30 min to identify total cell number; DsRed fluorescence images (543 nm excitation and 593 nm emission) were automatically captured by using the ImageXpressMICRO high-content imaging system (Molecular Devices, Sunnyvale, CA, USA) and analyzed using MetaXpress image acquisition and analysis software (Molecular Devices). In addition, the cells were fixed with paraformaldehyde (4% in PBS) for 15 minutes, permeabilized with methanol (80%) for 6 minutes at -20°C, incubated with thioflavin S (0.02%; Sigma-Aldrich) and 4’,6-diamidino-2-phenylindole (DAPI) (0.1 μg/ml; Sigma-Aldrich) for 5 minutes, and washed in ethanol (50%). Thioflavin S images ([…]) were captured and analyzed as described. In general, 2 × 10^4 cells in each biological replicate were analyzed.
# Figure S2. ΔK280 TauRD-DsRed 293 cells. (a) Experimental flow chart. Cells were plated on day 1. On day 2, the cells were treated with congo red or test compounds for 8 h; addition of doxycycline (Dox; 1 µg/ml) followed. DsRed/thioﬂavin S fluorescence, ROS, and caspase 3 activity were assessed on day 5. (b) Cytotoxicity of the test compounds against 293 cells expressing ∆K280 TauRD-DsRed for 3 days using the survived cell number (n = 3). IC50 values are listed. (c) Dose response curves of LM-031 based on DsRed fluorescence measurement. (d) Fluorescent images of ΔK280 TauRD-DsRed 293 cells untreated or treated with congo red (10 µM), licochalcone A (1 µM), or LM-031 (1 µM). Nuclei were counterstained with Hoechst 33342 (blue), and merged DsRed and Hoechst 33342 signals were shown. In addition, tau aggregation was monitored by staining with thioﬂavin S (green).
# [1] = Tet-on ∆K280 TauRD-DsRed 293 cells (expression induced), ∆K280 TauRD‐DsRed‐expressing 293 cells
SMILES,"viability at 3 days, 1 µM [1] [%]",IC50 at 3 days [µM],"viability at 3 days, 10 µM (Tet-on ∆K280 TauRD-DsRed 293 cells (expression induced), 10 μM, ∆K280 TauRD‐DsRed‐expressing 293 cells) [%]"
"C=CC(C)(C)c1cc(/C=C/C(=O)c2ccc(O)cc2)c(OC)cc1O [licochalcone A, reference compound]",94 to 97,5.9,–
COc1ccc(C(=O)/C=C/c2cc(Br)ccc2O)cc1 [LM‐004],–,5,–
"O=C(c1ccccc1)c1cc2c(O)cccc2oc1=O [LM‐031, 3‐benzoyl‐5‐hydroxychromen‐2‐one]",94 to 97,56.6,91
"Nc1c(/N=N/c2ccc(-c3ccc(/N=N/c4cc(S(=O)(=O)O)c5ccccc5c4N)cc3)cc2)cc(S(=O)(=O)O)c2ccccc12 [congo red, reference compound]",–,36.9,–

# Source: PMC7433010, “Exploration of multi‐target effects of 3‐benzoyl‐5‐hydroxychromen‐2‐one in Alzheimer’s disease cell and mouse models” (Aging Cell, 2020)
